Data on 2 compounds can be found in US10226536B2, “Polysaccharide therapeutic conjugates” (priority 2011, dated 2019).

Data set [1] concerns Lrat−/− mice. Description: Oral gavage of 9-cis-R-Ac in LCA mouse model with LRAT deficiency. Format: in vivo. The source says: (§1) We designed a polysaccharide therapeutic conjugate composition for the sustained release of 9-cis-retinyl esters to treat animal models of human retinal diseases, such as LCA. […] Unless initial high drug blood levels are unfavorable, this pharmacokinetic property could be beneficial because it relates to the therapeutic window, especially for drugs targeting peripheral tissues such as the retina through protein-mediated and protein-independent transport systems. A bolus dose could also establish a reversible depot of the drug in other tissues, thereby reducing the need for frequent dosing.

In another data set the test system is Rpe65−/− mice. The data set is described as follows: Retinoid treatment in LCA mouse model with RPE65 deficiency. Format: in vivo.
Source text: as §1

The test system of data set [2] is Lrat−/− mice. Particulars: dark room reared Lrat−/− mice; 6 gavages of 0.12 mg each over two weeks; vs untreated control Lrat−/− mice; cited from earlier work.
Data set [3] can be described thus: 9-cis-retinoid concentrations in plasma after gavage. Format: in vivo, mouse.
Source text: as §1

For the compound `CC(=O)OC/C=C(C)/C=C/C=C(C)\C=C\C1=C(C)CCCC1(C)C` [9-cis-R-Ac, 9-cis-retinyl acetate], in the data set with Lrat−/− mice [1], the retinal morphology result is listed as “preserves retinal morphology” and the visual function result is listed as “improves visual function”. Also, in the data set on Rpe65−/− mice (oral gavage, Rpe65−/− mice), the retinal morphology entry was “preserves retinal morphology” and the visual function entry is listed as “improves visual function”. Moreover, in the data set with Lrat−/− mice [2], the ROS layer thickness result is “substantially thicker” and the RPE-ROS interface result is given as “closer apposition”. The “9-cis-retinoid concentrations in plasma” value in data set [3] (5 hours after oral administration) is “dropped markedly to low levels”. In data set [3] (after gavage), the “9-cis-retinoid concentrations in plasma” value is listed as “increased rapidly to high levels”.

As to `CC1=C(/C=C/C(C)=C\C=C\C(C)=C\C=O)C(C)(C)CCC1` [9-cis-retinal], the visual function entry in the data set with Rpe65−/− mice (single dose, Rpe65−/− mice kept under laboratory lighting conditions) is on record as “rescued visual function for months”.
